Data as given in patent publication US20060058383A1 (priority 2004, published 2006).

Legend:
[1] = system: HL-60 cells; test: MTT assay, in vitro cytotoxic activity before and after storage of drug solutions; format: cell-based, human; conditions: pH 7.0, 72 h drug incubation
[2] = system: human lymphoma cells (Raji); test: Apoptosis, annexin-V/PI flow cytometry; format: cell-based; conditions: for apoptotic cells: 30 μM in combination with 100 ng/ml rapamycin; for apoptosis: 30 μM
From the text: Because the mTOR pathway plays an important role in promoting cellular nutrient metabolism and cell growth, and function to enhance cell survival downstream of the P13K/Akt pathway, the present inventors postulated that a simultaneous inhibition of mTOR and glycolysis, which serve as a major metabolic pathway for ATP generation in cancer cells, would severely impact cellular energy metabolism and have a potent cytotoxic effect against malignant cells. To test this possibility, rapamycin was used as an agent to inhibit mTOR, and glycolycin (3-bromo-2-oxopropionate, abbreviated herein as 3-BrOP) to inhibit glycolysis.
(§1) Cell growth inhibition was determined by direct counting of the cells after they were treated with rapamycin, 3-BrOP, or their combination. A Coulter Z2 Particle Count & Size Analyzer was used to determine cell counts at 24 h, 48 h, and 72 h after drug incubation. Apoptosis was measured by flow cytometric analysis of cells stained with annexin V-FITC and propidium iodide (PI). Cells were treated with the indicated compounds under various incubation conditions as described in the figure legends. The samples were collected, washed with cold PBS, and then suspended in annexin-V binding buffer. The cells were stained with annexin V-FITC for 15 min at room temperature, washed, and then stained with PI. The samples were analyzed using a FACSCalibur flow cytometer equipped with CELLQuestPro software (Becton-Dickinson, San Jose, Calif.).

[3] = system: Raji cells; test: Cellular glucose uptake, [3H]-2-deoxyglucose; format: cell-based, human; conditions: 2 h
Procedure: After the samples were washed three times with cold PBS, the radioactivity in the cell pellets was quantified by liquid scintillation counting. […] Intracellular nucleotides were extracted from the cells with 0.4 N of perchloric acid (PCA) for 10 min in ice-bath, neutralization with concentrated KOH to pH 7.0, and analyzed by HPLC analysis as described previously (Xu et al., 2005; Seymour et al., 1996). The intracellular ATP contents were calculated using the ATP standard curve generated under identical HPLC conditions, and normalized by equal cell number. The relative cellular ATP levels were expressed as percent of the control cells.

[4] = system: cancer cells; test: In vitro anticancer activity versus other glycolytic inhibitors; format: cell-based
[5] = system: HL-60 leukemia cells; test: Drug combination index, median-effect analysis; format: cell-based, human; conditions: combination with rapamycin (100 ng/ml), 24 h; CI less than 1 = synergistic
Procedure: (§2) FIGS. 35A-35D show synergistic cytotoxic effect of rapamycin and glycolycin (3-BrOP) in human lymphoma and leukemia cells. In FIG. 35A, the human lymphoma Raji cells were treated with 3-BrOP (30 μM), rapamycin (100 ng/ml), or their combinations as indicated, and apoptosis was measured by flow cytometry analysis after the cells were double-stained with annexin-V and PI as described in the Examples. In case of drug combination, cells were first treated with rapamycin for 18 h before addition of 3-BrOP and incubated for an additional 24 h or 48 h. In FIG. 35B, there is concentration-dependent induction of loss of cell viability by 3-BrOP in the presence and absence of rapamycin (100 ng/ml, 24 h) in Raji cells. Cells were double-stained with annexin-V and PI followed by flow cytometry analysis, and viable cells were expressed as % of control. […] Cell viability was determined as described above.
(§3) The above observations prompted the present inventors to use a formal drug combination analysis to determine if rapamycin and 3-BrOP have a synergistic effect. […] Cells were treated with various concentrations of 3-BrOP in the presence of a fixed concentration of rapamycin (100 ng/ml) for 24 h, and the percentage of apoptotic cells was quantitated by flow cytometry analysis using annexin-V/PI double staining. […]

[6] = system: Raji cells; test: Drug combination index, median-effect analysis; format: cell-based, human; conditions: combination with rapamycin (100 ng/ml), 24 h; CI less than 1 = synergistic
Procedure: as §2, §3

[7] = system: Raji cells; test: Cell growth by direct cell counting (Coulter Z2); format: cell-based, human
Procedure: A different assay was then used to further confirm the synergy between rapamycin and 3-BrOP. Raji cells were treated with 30 μM 3-BrOP, 100 ng/ml rapamycin, or their combination, and the numbers of cells were directly counted for consecutive 3 days, using a Coulter Z2 Particle Count & Size Analyzer.
as §1

[8] = Stability of neutral drug solution on storage
[9] = mouse, in vivo

## CCCOC(=O)C(=O)CBr [Glycolycin, propyl 3-bromo-2-oxopropionate]
[1]; 5 μM, fresh drug solution
  % Cell Survival: 19.3 ± 5.7%
[1]; 10 μM, drug stored for 3 weeks at 4° C.
  % Cell Survival: 3.0 ± 1.3%
[1]; 10 μM, fresh drug solution
  % Cell Survival: 2.5 ± 0.8%
[1]; 30 μM, drug stored for 3 weeks at 4° C.
  % Cell Survival: 2.9 ± 1.2%
[1]; 30 μM, fresh drug solution
  % Cell Survival: 3.7 ± 0.6%
[1]; 100 μM, drug stored for 3 weeks at 4° C.
  % Cell Survival: 2.5 ± 0.9%
[1]; 100 μM, fresh drug solution
  % Cell Survival: 3.5 ± 1.7%
[2]; 24 h
  apoptotic cells: 38%
  apoptosis: 19%
[2]; 48 h
  apoptotic cells: 79%
  apoptosis: 49%
[3]; 30 μM
  decrease of glucose uptake: 33%
[3]; 50 μM
  decrease of glucose uptake: 71%
[3]; Homo sapiens, Raji, 30 μM, in the presence of rapamycin (100 ng/ml, 18 h pre-treatment)
  inhibition at 30 µM: 70%
[3]; Homo sapiens, Raji, 50 μM, combination with 100 ng/ml of rapamycin (18 h pre-treatment)
  inhibition at 50 µM: 94%
[4]
  potency as measured by IC50 relative to currently available glycolytic inhibitors with a similar mechanism of action: 10-20 fold
[5]
  drug combination index (CI): < 1.0
[6]
  drug combination index (CI): < 1.0
[7]; 30 μM alone, up to 72 h
  decrease in cell numbers: ~35%
[7]; 30 μM in combination with 100 ng/ml rapamycin
  cell growth: almost complete inhibition of cell growth
[8]; kept at 4° C. for 3 weeks
  activity of solution after storage: remained stable
[8]; pH 7.0, kept at 4° C.
  stability of solution at neutral pH: stable
[9]
  toxicity in mice: No obvious toxicity
[9]; 5 mg/kg
  toxicity in animals, such as mice: no apparent toxicity
